Laboratory results from publication PMC6364417, “Kinase inhibitor library screening identifies synergistic drug combinations effective in sensitive and resistant melanoma cells” (Journal of Experimental & Clinical Cancer Research : CR, 2019).

Legend:
Experiment in all cases: Kinase inhibitor library screening, PrestoBlue cell viability, 1 or 10 μM, 72 h
[1] = test system: 501Mel-GP cells (Dabrafenib-resistant); details: for Cell viability in kinase inhibitor library screening, 501Mel GP, 1μΜ / Cell viability in kinase inhibitor library screening, 501Mel GP, 10μΜ / cell viability (kinase inhibitor library screening): 501Mel GP
A375 cells (parental) = details: for Cell viability in kinase inhibitor library screening, A375 Parental, 10μΜ / Cell viability in kinase inhibitor library screening, A375 Parental, 1μΜ / cell viability (kinase inhibitor library screening): A375 Parental
[2] = test system: IGR37-GP cells (Dabrafenib-resistant); details: for Cell viability in kinase inhibitor library screening, IGR37 GP, 10μΜ / Cell viability in kinase inhibitor library screening, IGR37 GP, 1μΜ / cell viability (kinase inhibitor library screening): IGR37 GP
[3] = test system: A375-XP cells (Vemurafenib-resistant); details: for Cell viability in kinase inhibitor library screening, A375 XP, 1μΜ / Cell viability in kinase inhibitor library screening, A375 XP, 10μΜ / cell viability (kinase inhibitor library screening): A375 XP
501Mel cells (parental) = details: for Cell viability in kinase inhibitor library screening, 501Mel Parental, 1μΜ / Cell viability in kinase inhibitor library screening, 501Mel Parental, 10μΜ / cell viability (kinase inhibitor library screening): 501Mel Parental
How it was run: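 Kinase inhibitors added at two fixed concentrations; 72 h exposure; PrestoBlue readout; % viability vs untreated; n ≥ 2 per line.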

IGR37 cells (parental) = details: for Cell viability in kinase inhibitor library screening, IGR37 Parental, 1μΜ / Cell viability in kinase inhibitor library screening, IGR37 Parental, 10μΜ / cell viability (kinase inhibitor library screening): IGR37 Parental
[4] = test system: 501Mel-XP cells (Vemurafenib-resistant); details: for Cell viability in kinase inhibitor library screening, 501Mel XP, 1μΜ / Cell viability in kinase inhibitor library screening, 501Mel XP, 10μΜ / cell viability (kinase inhibitor library screening): 501Mel XP
[5] = test system: IGR37-XP cells (Vemurafenib-resistant); details: for Cell viability in kinase inhibitor library screening, IGR37 XP, 10μΜ / Cell viability in kinase inhibitor library screening, IGR37 XP, 1μΜ / cell viability (kinase inhibitor library screening): IGR37 XP
[6] = test system: A375-GP cells (Dabrafenib-resistant); details: for Cell viability in kinase inhibitor library screening, A375 GP, 1μΜ / Cell viability in kinase inhibitor library screening, A375 GP, 10μΜ / cell viability (kinase inhibitor library screening): A375 GP

Row | Structure (SMILES) | Cell viability in kinase inhibitor library screening, 501Mel GP, 1μΜ ([1]; 1μΜ, 72 h, in %) | Cell viability in kinase inhibitor library screening, 501Mel GP, 10μΜ ([1]; 10μΜ, 72 h, in %) | Cell viability in kinase inhibitor library screening, A375 Parental, 10μΜ (A375 cells (parental); 10μΜ, 72 h) | Cell viability in kinase inhibitor library screening, A375 Parental, 1μΜ (A375 cells (parental); 1μΜ, 72 h) | Cell viability in kinase inhibitor library screening, IGR37 GP, 10μΜ ([2]; 10μΜ, 72 h) [%] | Cell viability in kinase inhibitor library screening, IGR37 GP, 1μΜ ([2]; 1μΜ, 72 h, in %) | Cell viability in kinase inhibitor library screening, A375 XP, 1μΜ ([3]; 1μΜ, 72 h) | Cell viability in kinase inhibitor library screening, A375 XP, 10μΜ ([3]; 10μΜ, 72 h) | Cell viability in kinase inhibitor library screening, 501Mel Parental, 1μΜ (501Mel cells (parental); 1μΜ, 72 h, in %) | Cell viability in kinase inhibitor library screening, 501Mel Parental, 10μΜ (501Mel cells (parental); 10μΜ, 72 h, in %) | Cell viability in kinase inhibitor library screening, IGR37 Parental, 1μΜ (IGR37 cells (parental); 1μΜ, 72 h, in %) | Cell viability in kinase inhibitor library screening, IGR37 Parental, 10μΜ (IGR37 cells (parental); 10μΜ, 72 h, in %) | Cell viability in kinase inhibitor library screening, 501Mel XP, 1μΜ ([4]; 1μΜ, 72 h, in %) | Cell viability in kinase inhibitor library screening, 501Mel XP, 10μΜ ([4]; 10μΜ, 72 h, in %) | Cell viability in kinase inhibitor library screening, IGR37 XP, 10μΜ ([5]; 10μΜ, 72 h) [%] | Cell viability in kinase inhibitor library screening, IGR37 XP, 1μΜ ([5]; 1μΜ, 72 h, in %) | Cell viability in kinase inhibitor library screening, A375 GP, 1μΜ ([6]; 1μΜ, 72 h) | Cell viability in kinase inhibitor library screening, A375 GP, 10μΜ ([6]; 10μΜ, 72 h) | also measured
1 | COc1ccc(-c2ccc3c(N4CCOCC4)nc(N4C[C@@H](C)O[C@@H](C)C4)nc3n2)cc1CO [Ku-0063794] | 56.6 | 13.4 | 24.0 | 63.8 | 36.1 | 76.2 | 54.3 | 19.7 | 71.5 | 16.9 | 73.4 | 23.7 | 47.2 | 6.9 | 12.3 | 68.5 | 63.9 | 20.8 | –
2 | c1ccc2c(-c3cnn4cc(-c5ccc(N6CCNCC6)cc5)cnc34)ccnc2c1 [LDN193189] | – | – | – | – | – | – | – | – | – | – | – | – | – | – | – | – | – | – | cell viability (kinase inhibitor library screening) ([1]; 1μΜ, in %): 129.1; cell viability (kinase inhibitor library screening) ([1]; 10μΜ, in %): 1.7; cell viability (kinase inhibitor library screening) (A375 cells (parental); 1μΜ, in %): 104.5; cell viability (kinase inhibitor library screening) (A375 cells (parental); 10μΜ, in %): 1.7; cell viability (kinase inhibitor library screening) ([2]; 1μΜ, in %): 94.5; cell viability (kinase inhibitor library screening) ([2]; 10μΜ, in %): 4.6; cell viability (kinase inhibitor library screening) ([3]; 1μΜ, in %): 98.9; cell viability (kinase inhibitor library screening) ([3]; 10μΜ, in %): 2.6; cell viability (kinase inhibitor library screening) (501Mel cells (parental); 1μΜ, in %): 119.0; cell viability (kinase inhibitor library screening) (501Mel cells (parental); 10μΜ, in %): 0.949; cell viability (kinase inhibitor library screening) (IGR37 cells (parental); 10μΜ, in %): 0.221; cell viability (kinase inhibitor library screening) ([4]; 10μΜ, in %): 0.8; cell viability (kinase inhibitor library screening) ([5]; 1μΜ, in %): 103.7; cell viability (kinase inhibitor library screening) ([5]; 10μΜ, in %): 3.2; cell viability (kinase inhibitor library screening) ([6]; 1μΜ, in %): 104.8; cell viability (kinase inhibitor library screening) ([6]; 10μΜ, in %): 3.4
3 | O=c1cc(N2CCOCC2)oc2c(-c3ccccc3)cccc12 [LY294002] | 104.8 | 77.9 | 80.4 | 105.7 | 72.8 | 100.0 | 104.6 | 90.9 | – | 86.8 | 106.7 | 84.5 | 91.4 | 68.2 | 46.1 | 100.0 | 104.5 | 79.2 | –
4 | CC(C)(C)Cn1c(N)nc2ccc(-c3[nH]c(C(C)(C)C)nc3-c3ccc(F)cc3)nc21 [LY2228820] | 108.2 | – | 91.0 | 105.7 | 82.8 | 90.6 | 100.0 | 84.7 | 95.6 | 91.9 | – | 98.8 | 97.0 | 82.4 | 38.4 | 91.6 | 105.3 | 79.1 | –
5 | Cc1cnc(NC(=O)Nc2cc(Br)c(C)cc2OC[C@@H]2CNCCO2)cn1 [LY2603618 (IC-83)] | – | – | – | – | – | – | – | – | – | – | – | – | – | – | – | – | – | – | cell viability (kinase inhibitor library screening) ([1]; 1μΜ, 72 h): 91.7%; cell viability (kinase inhibitor library screening) ([1]; 10μΜ, 72 h): 4.4%; cell viability (kinase inhibitor library screening) (A375 cells (parental); 10μΜ, 72 h): 15.4%; cell viability (kinase inhibitor library screening) (A375 cells (parental); 1μΜ, 72 h): 86.3%; cell viability (kinase inhibitor library screening) ([2]; 1μΜ, 72 h): 73.8%; cell viability (kinase inhibitor library screening) ([2]; 10μΜ, 72 h): 67.9%; cell viability (kinase inhibitor library screening) ([3]; 1μΜ, 72 h): 87.2%; cell viability (kinase inhibitor library screening) ([3]; 10μΜ, 72 h): 15.7%; cell viability (kinase inhibitor library screening) (501Mel cells (parental); 1μΜ, 72 h): 84.2%; cell viability (kinase inhibitor library screening) (501Mel cells (parental); 10μΜ, 72 h): 2.1%; cell viability (kinase inhibitor library screening) (IGR37 cells (parental); 1μΜ, 72 h): 81.7%; cell viability (kinase inhibitor library screening) (IGR37 cells (parental); 10μΜ, 72 h): 37.5%; cell viability (kinase inhibitor library screening) ([4]; 1μΜ, 72 h): 69.5%; cell viability (kinase inhibitor library screening) ([4]; 10μΜ, 72 h): -0.8%; cell viability (kinase inhibitor library screening) ([5]; 1μΜ, 72 h): 52.7%; cell viability (kinase inhibitor library screening) ([5]; 10μΜ, 72 h): 26.7%; cell viability (kinase inhibitor library screening) ([6]; 10μΜ, 72 h): 11.5%
6 | Cc1cc(Nc2cc(CN3CCOCC3)c3nc(C)c(Cc4ccc(Cl)cc4F)n3n2)n[nH]1 [LY2784544] | – | – | – | – | – | – | – | – | – | – | – | – | – | – | – | – | – | – | viability at 1 µM ([1]; Homo sapiens, 72 h, read-out: cell viability, 501Mel GP, 1μΜ): 99.1%; viability at 10 µM ([1]; Homo sapiens, 72 h, read-out: cell viability, 501Mel GP, 10μΜ): 49%; viability at 1 µM (A375 cells (parental); Homo sapiens, A-375, 72 h, read-out: cell viability, A375 Parental, 1μΜ): 94.9%; viability at 10 µM (A375 cells (parental); Homo sapiens, A-375, 72 h, read-out: cell viability, A375 Parental, 10μΜ): 28.1%; viability at 1 µM ([2]; Homo sapiens, IGR-37, 72 h, read-out: cell viability, IGR37 GP, 1μΜ): 90.3%; viability at 10 µM ([2]; Homo sapiens, IGR-37, 72 h, read-out: cell viability, IGR37 GP, 10μΜ): 53.2%; viability at 1 µM ([3]; Homo sapiens, A-375, 72 h, read-out: cell viability, A375 XP, 1μΜ): 102%; viability at 10 µM ([3]; Homo sapiens, A-375, 72 h, read-out: cell viability, A375 XP, 10μΜ): 35.9%; viability at 1 µM (501Mel cells (parental); Homo sapiens, 72 h, read-out: cell viability, 501Mel Parental, 1μΜ): 89.9%; viability at 10 µM (501Mel cells (parental); Homo sapiens, 72 h, read-out: cell viability, 501Mel Parental, 10μΜ): 67.3%; viability at 1 µM (IGR37 cells (parental); Homo sapiens, IGR-37, 72 h, read-out: cell viability, IGR37 Parental, 1μΜ): 99.2%; viability at 10 µM (IGR37 cells (parental); Homo sapiens, IGR-37, 72 h, read-out: cell viability, IGR37 Parental, 10μΜ): 87%; viability at 1 µM ([4]; Homo sapiens, 72 h, read-out: cell viability, 501Mel XP, 1μΜ): 87.1%; viability at 10 µM ([4]; Homo sapiens, 72 h, read-out: cell viability, 501Mel XP, 10μΜ): 27.9%; viability at 1 µM ([5]; Homo sapiens, IGR-37, 72 h, read-out: cell viability, IGR37 XP, 1μΜ): 91.6%; viability at 10 µM ([5]; Homo sapiens, IGR-37, 72 h, read-out: cell viability, IGR37 XP, 10μΜ): 17.9%; viability at 1 µM ([6]; Homo sapiens, A-375, 72 h, read-out: cell viability, A375 GP, 1μΜ): 101%; viability at 10 µM ([6]; Homo sapiens, A-375, 72 h, read-out: cell viability, A375 GP, 10μΜ): 26.9%
